Where only a bound is given, the exact number is not on record here.

Compound `COc1cc(COc2nn(-c3ccccc3)cc2C=O)ccc1OCc1cn(-c2ccccn2)nc1C` returned a melting point of 179 to 180 °C.
Consider `CC(=O)NC[C@H]1CC[C@H](C(=O)c2cc3c4c(c2)CCN4C(=O)CC3)CC1`, for which the melting point lay in the range of 178 to 180 °C.
The figure for `CCCCOC(=O)c1c(CSc2nccn2C)nc2cc(OC)c(OC)cc2c1-c1ccc(OC)c(OC)c1` is 131 to 132 °C; for `CN(C)C(=O)[C@@H]1C[C@H]1C(=O)c1c[nH]c2ccc(F)cc12` (relative stereo) it is 239 to 241 °C; for `CSc1nc(O)cc(-c2cccc(C#N)c2)n1` it is greater than 220 °C.
With `CC(=O)c1ccc(Nc2c3ccccc3nc3occ(Cl)c23)cc1` the figure was 174 to 176 °C; with `COc1ccc2oc(N)c(C#N)c(=O)c2c1`, 320 °C.
The figure for `Cc1ccc(N2CSC(=NCc3ccc(C(F)(F)F)cc3)N(CC(F)(F)F)C2=O)cc1` is 97 to 98.5 °C.
As to `CC(C)C[C@H](NC(=O)OC(C)(C)C)C(=O)N[C@@H](C(C)C)[C@@H](O)c1c(-c2ccc(F)cc2)c1=O`, the melting point was in the range of 90 to 96 °C.
`N=C(N)N(CCCC(C=O)NC(=O)C1CCCN1C(=O)c1cc2ccccc2[nH]1)C(=O)OCc1ccccc1` (configuration not stated): the melting point lay in the range of 111 to 133 °C.
With `Cc1nc(-c2ccccc2)nc(-c2ccncc2)c1C(=O)O` the figure was 270 to 271 °C.
In turn, `OC(=S)CCCc1nn(-c2ccccc2)c2c1CCCC2` gave a melting point of 105 to 106 °C.
The figure for `Fc1ccccc1-c1nc2ncccc2o1` is 126 to 127 °C; for `Cc1nc2cnc3ccccc3c2n1Cc1ccc(Cl)cc1` it is 183 to 185 °C; for `O=[N+]([O-])c1ccc(Cl)c(O)c1` it is 115 to 117 °C.
`COc1cc2c(cc1OC)Nc1nccn1C2` showed a melting point of 215 to 217 °C.
`COc1cccc(N(CCN2CCC(C(=O)c3ccc(F)cc3)CC2)C(=O)c2cccc(N)c2)c1` yielded a melting point of 141 to 142 °C.
For the compound `COc1cccc(CN2N=C(c3ccc(OC)c(OC)c3)[C@@H]3CCCC[C@@H]3C2=O)c1` (relative stereo), the melting point was 115 °C.
As to `CCCCc1nc2cc3ccccc3cc2n1Cc1ccc(C#N)cc1`, the melting point turned out to be 138 °C.
The figure for `CCCCOP(=O)(OCCCC)OCN1C(=O)NC(c2ccccc2)(c2ccccc2)C1=O` is 94.8 to 96.9 °C; for `CC(C)(C)OC(=O)COc1cc(NC(=O)OC(C)(C)C)c(N)cc1-c1ccc(F)cc1` it is 30 to 33 °C; for `COC(=O)C(C#N)=CC(C)=CN(C)C` it is 163 to 164 °C.
Regarding `COc1nc2ccccc2nc1NC(=O)N1CCN(c2ccc(C(C)=O)cc2)CC1`, the melting point lay in the range of 198 to 200 °C.
With `COC(=O)Cc1ccc2c(c1)C(=O)Cc1ccccc1C2` the figure was 111 to 112 °C; with `O=C(O)Cc1onc(O)c1Br`, 167 °C.
For the compound `COc1cc(C)nc(NC(=S)NS(=O)(=O)c2ccccc2Cl)n1`, the melting point lay within 186 to 188 °C.
With `CC(OCc1cc2cc(C(F)(F)F)ccc2n1S(=O)(=O)c1ccccc1)C(=O)O` (configuration not stated) the figure was 72 to 74 °C.
The figure for `CC(C)Cn1c(C(C)O)nc2cnc3ccccc3c21` (configuration not stated) is 152 to 166 °C; for `CCc1nnc(-c2ccc(-c3ccccc3)nc2)n1-c1cccc(C(N)=O)c1C` it is 162 to 163 °C; for `CCN(CCc1c[nH]c2ccc(F)cc12)C1COc2c(F)ccc(C(N)=O)c2C1` (configuration not stated) it is 127 °C.
With `CC(C)n1nc(-c2nc(C(N)=O)c(N)nc2-c2ccccc2Br)ccc1=O` the figure was 132 to 135 °C; with `CC#CCOc1ccc(S(=O)(=O)NC(C(=O)NO)c2ccc(OCCN3CCOCC3)cc2)cc1` (configuration not stated), 80 to 86 °C.
The compound `O=C(O)C1=Cc2cc(C(O)C(F)(F)F)ccc2OC1C(F)(F)F` (configuration not stated) came in with a melting point of 114 to 120 °C.
With `CN(CCO)Cc1ccc2c(c1)c(=O)c(C(=O)NCc1ccc(Cl)cc1)cn2C` the figure was 130 to 131 °C.
Compound `COc1ccc(-c2[nH]nc3c2C(=O)c2c(NC(=O)NNC(=O)c4ccncc4)cccc2-3)cc1` had a melting point of 248 °C.
With `CC1(C)OC(c2ccc(S(C)(=O)=O)c(Cl)c2)=C(c2ccccc2)C1=O` the figure was 174 to 175 °C; with `Cc1sc(-c2ccccc2)nc1COc1ccc(COc2ccccc2CC(=O)O)cn1`, 173 to 174 °C.
The figure for `O=C(Nc1ccccc1)Nc1cccc(Nc2ncnc3[nH]cc(C(=O)c4ccccc4)c23)c1` is greater than 300 °C; for `COC(=O)C(CC(N)C(=O)O)CC(N)N1C=CC=CC1` (configuration not stated) it is 240 to 242 °C; for `COc1ccc(C=CC(=O)O)cc1-c1cc2c(cc1OCCN1CCCCC1)C(C)(C)CCC2(C)C` it is 251 to 253 °C.
On to `CCc1nc2c(C)cc(C)nc2n1Cc1ccc2nc(-c3ccccc3NS(=O)(=O)C(F)(F)F)ccc2c1`, for which the melting point turned out to be 252 °C.
`CCCN(CCC)CCCC1CCN(CCNC(=O)N2c3ccccc3NC(=O)c3csc(C)c32)CC1` showed a melting point of 114 to 115 °C.
The figure for `COc1ccc2c(c1)C(=O)CC1C2CCC2(C)C(O[Si](C)(C)C(C)(C)C)CCC12` (configuration not stated) is 159 to 160 °C.
In the case of `O=C1CCC(c2ccccc2)(c2ccccc2)[C@@H]2CN(C(=O)Cc3ccc(Cl)cc3)C[C@H]12` (racemic), the melting point came to 213 °C.
With `CC(C)(SC(F)(F)F)C(O)C(Oc1ccc(Cl)cc1)n1cncn1` (configuration not stated), the melting point is 85 to 87 °C.
With `CCCc1c(OCc2cccc(OCc3ccc4ccccc4n3)c2)ccc2c(=O)cc(C(=O)O)oc12` the figure was 218 to 222 °C; with `O=C(O)CC1C2=C(CCCC2)C(=O)N1c1ccc(Cl)cc1` (configuration not stated), 177 to 178 °C; with `CCn1cc(C(=O)O)c(=O)c2c(F)c(F)c(N3CCOCC3)c(F)c21`, 281 to 283 °C.
With `CCOC(=O)c1cc(C(=O)O)nc2cc(Cl)cc(Cl)c12`, the melting point was 152 to 154 °C.
The compound `C=C(C)COc1cc(C)c2c(c1C)CC(C)(C)N2C=O` yielded a melting point of 83 to 95 °C.
The figure for `Cn1c2cc(OCC(O)CO)ccc2c2c3c(c(-c4ccccc4Cl)cc21)C(=O)NC3=O` (configuration not stated) is 287 to 290 °C; for `CS/C=C(/C)n1c(=O)n(C)c2cc(F)ccc21` it is 110 °C; for `Cc1cc(NC(=O)C2CSc3sccc3C2=O)no1` (configuration not stated) it is 143 to 146 °C.
The figure for `Cn1cc(S(=O)(=O)Cl)c(=O)c2ccc(F)cc21` is 194 to 196 °C; for `O=C1C(=O)N(CCl)c2ccccc21` it is 121 to 123 °C.
As to `CC(C)c1cc(C(=O)Nc2ccc3[nH]c(C(=O)O)cc3c2)oc1C(C)C`, the melting point lay in the range of 240 to 243 °C.
For the compound `Clc1ccc2c(c1)-c1[nH]ncc1CO2`, the melting point lay in the range of 175 to 176 °C.
With `c1cc(-c2noc(C3CC3)n2)cnn1` the figure was 115 to 117 °C; with `Oc1ccc2c(c1)OCC1c3ccccc3OC21` (configuration not stated), 148 to 152 °C.
With `O=S(=O)(CC1(O)CN2CCC1CC2)c1ccc(-c2ccccc2)cc1` (configuration not stated) the figure was 203 to 205 °C.
Regarding `CC1C(=NO)CC2(O)C3Cc4ccc(O)c5c4C2(CCN3CC2CC2)C1O5` (configuration not stated), the melting point was 172 to 173 °C.
The compound `CCOc1ccccc1Sc1ccc(/C=C/C(=O)N2CCCC(C(=O)O)C2)cc1Cl` (configuration not stated) showed a melting point of 166 to 171 °C.
For `CCNC(=O)n1nc(Oc2c(Cl)cc(C(F)(F)F)cc2Cl)cc1CC`, the melting point lay in the range of 86 to 89 °C.
As for `O=C(O)C1=Cc2cc(Cl)cc(-c3ccc(Cl)cc3)c2OC1C(F)(F)F` (configuration not stated), the melting point was in the range of 206 to 207 °C.
As for `O=C(Nc1ccc2c(c1)nc1n2CCC1)c1cc2nc(C(F)(F)F)ccc2n1Cc1ccncc1`, the melting point lay within 130 to 131 °C.
For `COc1cccc(Oc2ccc3ccc(-c4cc(OC)ccc4C(N)=O)nc3n2)c1`, the melting point was found to be 150 °C.
With `Cc1nc2ccc(NC(=O)COCc3ccccc3)cc2c(=O)n1C1CCC(=O)NC1=O` (configuration not stated) the figure was 248 to 250 °C; with `O=C(Nc1ccc(Cl)cc1C(=NO)c1ccccc1)C(F)Cl` (configuration not stated), 110 to 129 °C.
The compound `CS(=O)(=O)c1ccc(-c2sc(COc3cccc(Cl)c3)nc2-c2ccc(F)cc2)cc1` displayed a melting point of 128 to 131 °C.
In the case of `Cc1ccc(C2=C(c3ccc(C)cc3)C(c3ccc(C)cc3)=C(c3ccc(C)cc3)C2=O)cc1`, the melting point fell in the range of 244 to 245 °C.
With `CC(=O)Nc1ccc(C2=NN(c3nnc(C)s3)[C@H](C)Cc3cc4c(cc32)OCO4)cc1C` the figure was 267 to 269 °C; with `CC1=C(C)C(=O)N(c2ccc(Cl)c(C=C(Cl)C#N)c2)C1=O`, 139 to 140 °C; with `COc1ccc(Cc2cnc(N[N+](=O)[O-])[nH]c2=O)cn1`, 184 to 186 °C.
In turn, `O=C1NC(=O)C2(c3ccccc3)CC1C2` came in with a melting point of 217 to 218 °C.
Take `Cc1cccc2c1C(=O)N1CC[C@H]1C(=O)N2`: the melting point is 159 to 160 °C.
As for `CN1C(=O)Cc2c(Cl)cc(Cl)cc21`, the melting point fell in the range of 144 to 145 °C.
The figure for `C#Cc1cccc(Nc2ncnc3c2ccn3CCOCCOC)c1` is 240 to 241 °C.
Turning to `O=[N+]([O-])c1ccc(CF)cc1`, the melting point is 33 to 34 °C.
With `COc1ccc(CN2CCC(C(O)(c3ccc(OC(F)(F)F)cc3)c3ccc(OC(F)(F)F)cc3)CC2)cc1` the figure was 86 to 96 °C.
`O=C(NCCc1ccccn1)c1ccc2cc(C(=O)N3CC(CCl)c4ccc([N+](=O)[O-])cc43)[nH]c2c1` (configuration not stated) returned a melting point of 204 to 207 °C.
Turning to `O=C(Cn1ccnc1[N+](=O)[O-])c1cccnc1`, the melting point is 125 to 127 °C.
With `O=c1ccc(-c2c(-c3ccccc3)nn3ccccc23)nn1C1CCC2(CC1)OCCO2` the figure was 189 to 190 °C; with `CCCCCCSc1nn2c(=O)cc(Cl)nc2s1`, 95 to 96 °C; with `CC(CC1C(C(=O)O)C1(C)C)=C(Cl)Cl` (configuration not stated), 58.5 to 60 °C.
The compound `CN(SC(C)(C)C)C(=O)Nc1ccc(Cl)c(Cl)c1` yielded a melting point of 127 °C.
`COc1cc(I)c(F)cc1Cl` displayed a melting point of 90 to 94 °C.
The figure for `C#CCON=C(C(=O)OC)c1nsc(NC(=O)OC(C)(C)C)n1` is 72 to 75 °C.

Source of the values: a melting point compilation (Tetko et al.; mined from patent text by program, amines drawn as free bases though some values may be those of a salt).
